Source: BindingDB's records for doi:10.1021/jm00093a008 (Technical University of Denmark, 1992)

What was measured:
[1] = Concentration inhibiting Clostridium histolyticum collagenase.
[2] = as above; remark: listed apart in the source

IC50 [1] | SMILES | IC50 [2]
670 nM | COC1C(C)OC(O[C@@H]2c3c(cc4c(c3O)C(=O)c3c(O)cccc3C4=O)C(=O)[C@@](C)(O)[C@H]2OC)C(OC)C1OC (stereo not given in full) | –
220 nM | CCOP(=O)(OCC)O[C@]1(C)C(=O)c2cc3c(c(O)c2[C@@H](OC2OC(C)C(O)C(O)C2OC)[C@@H]1OC)C(=O)c1c(O)cccc1C3=O (stereo not given in full) | –
19000 nM | CO[C@H]1[C@H](O)c2c(cc3c(c2O)C(=O)c2c(O)cccc2C3=O)C(=O)[C@@]1(C)O | –
> 100000 nM | COC1C(O[C@@H]2c3c(cc4c(c3O)C(=O)c3c(O)cccc3C4=O)C(=O)[C@@](C)(O)[C@H]2OC)OC(C)C(OC(C)=O)C1OC(C)=O (stereo not given in full) | –

The remaining lines, values behind:

SMILES | IC50 [1] | IC50 [2]
COC1C(O[C@@H]2c3c(cc4c(c3O)C(=O)c3c(O)c(N(C)C)cc(N(C)C)c3C4=O)C(=O)[C@@](C)(O)[C@H]2OC)OC(C)C(O)C1O (stereo not given in full) | > 100000 nM | –
COC1C(O[C@@H]2c3c(cc4c(c3O)C(=O)c3c(ccc(N(C)C)c3O)C4=O)C(=O)[C@@](C)(O)[C@H]2OC)OC(C)C(O)C1O (stereo not given in full) | 2000 nM | –
COC1C(O[C@@H]2c3c(cc4c(c3O)C(=O)c3c(O)cccc3C4=O)C(=O)[C@@](C)(O)[C@H]2OC)OC(C)C(O)C1O[Si](C)(C)C(C)(C)C (stereo not given in full) | 17000 nM | –
COC1C(O[C@@H]2c3c(cc4c(c3O)C(=O)c3c(O)cccc3C4=O)C(=O)[C@@](C)(O)[C@H]2OC)OC(C)C(O)C1O (stereo not given in full) | 370 nM | –
CC[C@@]1(O)C[C@H](O[C@H]2C[C@H](N(C)C)[C@H](O[C@H]3C[C@H](O)[C@H](O[C@H]4CCC(=O)[C@H](C)O4)[C@H](C)O3)[C@H](C)O2)c2c(cc3c(c2O)C(=O)c2c(O)cccc2C3=O)[C@H]1C(=O)OC [ACLACINOMYCIN A] | – | 9900 nM
COC1C(O[C@@H]2c3c(cc4c(c3O)C(=O)c3c(O)cccc3C4=O)C(=O)[C@](C)(O)[C@H]2OC)OC(C)C(O)C1O (stereo not given in full) | 3000 nM | –
